pKi: −log10 of the molar value. A value given as a limit tells only on which side of the number the result lay.

T1 sequence (P50406 whole entry): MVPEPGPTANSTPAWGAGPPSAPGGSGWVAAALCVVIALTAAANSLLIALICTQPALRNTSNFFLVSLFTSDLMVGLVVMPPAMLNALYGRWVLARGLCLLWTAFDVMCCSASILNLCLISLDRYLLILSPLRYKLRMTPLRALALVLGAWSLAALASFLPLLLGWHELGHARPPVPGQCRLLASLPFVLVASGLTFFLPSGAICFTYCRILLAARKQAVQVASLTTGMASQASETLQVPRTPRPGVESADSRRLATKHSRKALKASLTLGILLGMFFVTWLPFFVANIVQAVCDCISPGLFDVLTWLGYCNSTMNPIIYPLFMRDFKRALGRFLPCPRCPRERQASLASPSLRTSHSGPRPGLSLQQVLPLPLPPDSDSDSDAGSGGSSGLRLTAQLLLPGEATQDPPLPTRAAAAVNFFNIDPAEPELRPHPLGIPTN

The first assay has as its target T1, human 5-HT6 receptor (Homo sapiens, UniProt P50406).
T1 construct: host or cells: CHO-K1 cells, stably transfected; membranes prepared in house
As to the kind of experiment: Human 5-HT6 Receptor Binding Assay ([3H]LSD, scintillation beads). The note with it: Human 5-HT6 Ki (nM), actual data; membranes of CHO-K1 cells with recombinant human 5-HT6 receptor, 4 nM [3H]LSD. As to the method: Human 5-HT6 Receptor Binding Assay
Membranes were prepared from CHO-K1 cells stably transfected with the human 5-HT6 receptor (Euroscreen; ES-316-C). The cells were grown in Gibco Advanced DMEM-F12 (Cat#12634010) containing 2% dialyzed FBS (Hyclone Cat#SH30079.03). The cells were harvested in phosphate buffered saline (PBS) containing 0.1 mM EDTA and pelleted by centrifugation (1000×g), the supernatant was discarded and the pellets were stored at −80° C. prior to membrane preparation. Membranes were prepared as previously described (J Bio Chem. 1992, 267 (14) 9844-51). Briefly, frozen cell pellet was resuspended in a lysis buffer containing 5 mM Tris-HCl (pH 7.5), 5 mM EDTA and 1 complete EDTA-free protease inhibitor tablet (Roche Applied Science, Indianapolis, Ind.) per 50 mL buffer, and homogenized with a tissue homogenizer. The cell lysate was then centrifuged at 40,000×g for 30 min at 4° C. to collect the membranes. The membrane pellets were washed in membrane buffer (50 mM Tris-HCl (pH 7.5), 0.6 mM EDTA, 5 mM MgCl2, 1 complete EDTA-free protease inhibitor tablet per 50 mL buffer) using a tissue homogenizer. The membranes were centrifuged at 40,000×g for 30 min at 4° C. and the pellets were resuspended in membrane buffer containing 250 mM sucrose, and protein concentration was determined using the Coomassie Plus kit (Pierce Biotechnology, Rockford, Ill.).
Membranes prepared from cells expressing recombinant human 5-HT6 receptor (h5-HT6) were resuspended in assay buffer containing 50 mM Tris HCl, (pH7.4), 4 mM CaCl2, 10 μg/mL saponin, and 0.1% (w/v) ascorbic acid. Membranes were preincubated using 1.75 μg membrane protein and 0.25 mg FlashBlue scintillation beads (PerkinElmer catalogue #FB001) per well at 4° C. for 30 min. […] Test compounds or assay controls for total and non-specific binding were diluted in DMSO as 100× solutions and serially diluted by half log concentrations on a Perkin Elmer JANUS Automated Workstation. Serotonin (10 μM final concentration) was used to determine non-specific binding in the assay. Plates were read using the Microbeta Trilux 1450 LSC and luminescence counter. Data were analyzed by nonlinear […] using the dose-response equation (variable slope) to calculate IC50 in XLfit4 (ID Business Solutions Inc.): y=(Bottom+((Top−Bottom)/(1+((IC50/x)^Hill slope))))
Ki value was then calculated according to the Cheng-Prusoff method using the equation below (Cheng and Prusoff, 1973): Ki, app=IC50/(1+([radioligand]/Kd))
Take `COc1cncc(S(=O)(=O)c2ccc3c(c2)OCC2NCCC32)c1` (racemic) [Example 110, 7-[(5-methoxypyridin-3-yl)sulfonyl]-1,2,3,3a,4,9b-hexahydrochromeno[3,4-b]pyrrole]: the Ki was 98.4 nM.

Staying with this assay, now noted: Human 5-HT6 Ki app (nM), membranes of CHO-K1 cells with recombinant human 5-HT6 receptor, 4 nM [3H]LSD, Cheng-Prusoff.
`COc1cncc(S(=O)(=O)c2ccc3c(c2)OCC2NCCC32)c1` (racemic) [Example 110, 7-[(5-methoxypyridin-3-yl)sulfonyl]-1,2,3,3a,4,9b-hexahydrochromeno[3,4-b]pyrrole]: the Ki was less than 500 nM. For `O=S(=O)(c1cncc(Cl)c1)c1ccc2c(c1)OCC1NCCC21` (racemic) [Example 111, 7-[(5-chloropyridin-3-yl)sulfonyl]-1,2,3,3a,4,9b-hexahydrochromeno[3,4-b]pyrrole], the Ki is less than 500 nM.

Staying with this assay, now noted: actual data; membranes of CHO-K1 cells with recombinant human 5-HT6 receptor, 4 nM [3H]LSD; read-out: Human 5-HT6 Ki.
As usually defined, the pKi is the negative decadic logarithm of the Ki, by convention in mol/L. As to `O=S(=O)(c1ccccc1)c1ccc2c(c1)OCC1NCCC21` (racemic) [Example 104, 7-(phenylsulfonyl)-1,2,3,3a,4,9b-hexahydrochromeno[3,4-b]pyrrole], the pKi was 8.60.

Staying with this assay, now noted: membranes of CHO-K1 cells with recombinant human 5-HT6 receptor, 4 nM [3H]LSD, Cheng-Prusoff; read-out: Human 5-HT6 Ki app.
As for `[O-][S+](c1ccccc1)c1ccc2c(c1)OCC1NCCC21` (racemic) [Example 25, 7-(Phenylsulfinyl)-1,2,3,3a,4,9b-hexahydrochromeno[3,4-b]pyrrole], the negative-log Ki (pKi) was more than 6.30. With `[O-][S+](c1ccccc1)c1ccc2c(c1)OCC1NCCC21` (racemic) [Example 26, 7-(Phenylsulfinyl)-1,2,3,3a,4,9b-hexahydrochromeno[3,4-b]pyrrole], the negative logarithm of the Ki (pKi) is less than 6.00. On to `O=S(=O)(c1ccccc1)c1ccc2c(c1)OCC1NCCC21` (racemic) [Example 104, 7-(phenylsulfonyl)-1,2,3,3a,4,9b-hexahydrochromeno[3,4-b]pyrrole], for which the negative-log Ki (pKi) is more than 6.30.

Regarding `O=S(=O)(c1cc(F)cc(F)c1)c1ccc2c(c1)OCC1NCCC21` (racemic) [Example 105, 7-[(3,5-difluorophenyl)sulfonyl]-1,2,3,3a,4,9b-hexahydrochromeno[3,4-b]pyrrole], the pKi is more than 6.30. `[O-][S+](c1ccccc1)c1ccc2c(c1)OCC1NCCC21` (racemic) [Example 106, 7-(phenylsulfinyl)-1,2,3,3a,4,9b-hexahydrochromeno[3,4-b]pyrrole]: the pKi is more than 6.30.

As to `CC(C)Oc1cccc(S(=O)(=O)c2ccc3c(c2)OCC2NCCC32)c1` (racemic) [Example 107, 7-{[3-(propan-2-yloxy)phenyl]sulfonyl}-1,2,3,3a,4,9b-hexahydrochromeno[3,4-b]pyrrole], the pKi was more than 6.30. The same measure, in the same setting: under `COc1cc(F)cc(S(=O)(=O)c2ccc3c(c2)OCC2NCCC32)c1` (racemic) [Example 109, 7-[(3-fluoro-5-methoxyphenyl)sulfonyl]-1,2,3,3a,4,9b-hexahydrochromeno[3,4-b]pyrrole] stands more than 6.30. As for `O=S(=O)(c1cccc(F)c1)c1ccc2c(c1)OCC1NCCC21` (single isomer, unassigned) [Example 1, 7-[(3-fluorophenyl)sulfonyl]-1,2,3,3a,4,9b-hexahydrochromeno[3,4-b]pyrrole], the pKi is more than 6.30. For `O=S(=O)(c1cccc(Cl)c1)c1ccc2c(c1)OCC1NCCC21` (single isomer, unassigned) [Example 2, 7-[(3-chlorophenyl)sulfonyl]-1,2,3,3a,4,9b-hexahydrochromeno[3,4-b]pyrrole], the negative logarithm of the Ki (pKi) was more than 6.30. Consider `O=S(=O)(c1cc(Cl)cc(Cl)c1)c1ccc2c(c1)OCC1NCCC21` (single isomer, unassigned) [Example 3, 7-[(3,5-dichlorophenyl)sulfonyl]-1,2,3,3a,4,9b-hexahydrochromeno[3,4-b]pyrrole], for which the pKi was more than 6.30. The same measure, in the same setting: for `O=S(=O)(c1ccc(F)cc1)c1ccc2c(c1)OCC1NCCC21` (single isomer, unassigned) [Example 4, 7-[(4-fluorophenyl)sulfonyl]-1,2,3,3a,4,9b-hexahydrochromeno[3,4-b]pyrrole] the value was more than 6.30; for `O=S(=O)(c1cc(F)cc(Cl)c1)c1ccc2c(c1)OCC1NCCC21` (single isomer, unassigned) [Example 6, 7-[(3-chloro-5-fluorophenyl)sulfonyl]-1,2,3,3a,4,9b-hexahydrochromeno[3,4-b]pyrrole], more than 6.30; for `O=S(=O)(c1cccc(OC(F)(F)F)c1)c1ccc2c(c1)OCC1NCCC21` (single isomer, unassigned) [Example 7, 7-{[3-(trifluoromethoxy)phenyl]sulfonyl}-1,2,3,3a,4,9b-hexahydrochromeno[3,4-b]pyrrole], more than 6.30. For `O=S(=O)(c1cccc(C(F)(F)F)c1)c1ccc2c(c1)OCC1NCCC21` (single isomer, unassigned) [Example 8, 7-{[3-(trifluoromethyl)phenyl]sulfonyl}-1,2,3,3a,4,9b-hexahydrochromeno[3,4-b]pyrrole], the pKi is more than 6.30. Regarding `CC(C)Oc1cccc(S(=O)(=O)c2ccc3c(c2)OCC2NCCC32)c1` (single isomer, unassigned) [Example 9, 7-{[3-(propan-2-yloxy)phenyl]sulfonyl}-1,2,3,3a,4,9b-hexahydrochromeno[3,4-b]pyrrole], the pKi is more than 6.30. In the case of `O=S(=O)(c1cccc(F)c1)c1ccc2c(c1)OCC1NCCC21` (single isomer, unassigned) [Example 10, 7-[(3-fluorophenyl)sulfonyl]-1,2,3,3a,4,9b-hexahydrochromeno[3,4-b]pyrrole], the pKi is more than 6.30. With `O=S(=O)(c1cccc(Cl)c1)c1ccc2c(c1)OCC1NCCC21` (single isomer, unassigned) [Example 11, 7-[(3-chlorophenyl)sulfonyl]-1,2,3,3a,4,9b-hexahydrochromeno[3,4-b]pyrrole], the pKi is more than 6.30.

Consider `O=S(=O)(c1cc(Cl)cc(Cl)c1)c1ccc2c(c1)OCC1NCCC21` (single isomer, unassigned) [Example 12, 7-[(3,5-dichlorophenyl)sulfonyl]-1,2,3,3a,4,9b-hexahydrochromeno[3,4-b]pyrrole], for which the pKi was more than 6.30.

As for `O=S(=O)(c1ccc(F)cc1)c1ccc2c(c1)OCC1NCCC21` (single isomer, unassigned) [Example 13, 7-[(4-fluorophenyl)sulfonyl]-1,2,3,3a,4,9b-hexahydrochromeno[3,4-b]pyrrole], the pKi was more than 6.30. Turning to `O=S(=O)(c1cc(F)cc(F)c1)c1ccc2c(c1)OCC1NCCC21` (single isomer, unassigned) [Example 14, 7-[(3,5-difluorophenyl)sulfonyl]-1,2,3,3a,4,9b-hexahydrochromeno[3,4-b]pyrrole], the pKi was more than 6.30. The same measure, in the same setting: for `O=S(=O)(c1cc(F)cc(Cl)c1)c1ccc2c(c1)OCC1NCCC21` (single isomer, unassigned) [Example 15, 7-[(3-chloro-5-fluorophenyl)sulfonyl]-1,2,3,3a,4,9b-hexahydrochromeno[3,4-b]pyrrole] the value was more than 6.30; for `O=S(=O)(c1cccc(OC(F)(F)F)c1)c1ccc2c(c1)OCC1NCCC21` (single isomer, unassigned) [Example 16, 7-{[3-(trifluoromethoxy)phenyl]sulfonyl}-1,2,3,3a,4,9b-hexahydrochromeno[3,4-b]pyrrole], more than 6.30; for `O=S(=O)(c1cccc(C(F)(F)F)c1)c1ccc2c(c1)OCC1NCCC21` (single isomer, unassigned) [Example 17, 7-{[3-(trifluoromethyl)phenyl]sulfonyl}-1,2,3,3a,4,9b-hexahydrochromeno[3,4-b]pyrrole], more than 6.30.

With `CC(C)Oc1cccc(S(=O)(=O)c2ccc3c(c2)OCC2NCCC32)c1` (single isomer, unassigned) [Example 18, 7-{[3-(propan-2-yloxy)phenyl]sulfonyl}-1,2,3,3a,4,9b-hexahydrochromeno[3,4-b]pyrrole], the pKi was more than 6.30. On to `O=S(=O)(c1ccc2c(c1)OCC1NCCC21)c1cccc2ccccc12` (single isomer, unassigned) [Example 19, 7-(naphthalen-1-ylsulfonyl)-1,2,3,3a,4,9b-hexahydrochromeno[3,4-b]pyrrole], for which the pKi is more than 6.30. `O=S(=O)(c1ccc2c(c1)OCC1NCCC21)c1cccc2ccccc12` (single isomer, unassigned) [Example 20, 7-(naphthalen-1-ylsulfonyl)-1,2,3,3a,4,9b-hexahydrochromeno[3,4-b]pyrrole]: the pKi was more than 6.30.

As to `Cc1cccc(Sc2ccc3c(c2)OCC2NCCC32)n1` (single isomer, unassigned) [Example 21, 7-[(6-methylpyridin-2-yl)sulfanyl]-1,2,3,3a,4,9b-hexahydrochromeno[3,4-b]pyrrole], the pKi was less than 6.00.

The values are drawn from US9115147B2, “Tricyclic derivatives and their pharmaceutical use and compositions” (Cephalon, Inc., priority 2009, dated 2015).
